Experimental data published in ChEMBL document CHEMBL3621133, “Macrocyclic derivatives of 6-methyluracil as ligands of the peripheral anionic site of acetylcholinesterase” (Medchemcomm, 2014).

What was measured:
[1] = target: T1, Acetylcholinesterase (Homo sapiens, UniProt P22303); test: Inhibition of AChE from human erythrocytes
[2] = test system: Rattus norvegicus; test: […] in muscle action potential decrement in rat experimental autoimmune model of myasthenia gravis at 0.004 mg/kg, ip (reference value: 67.3 +/- 2.7%); type: functional
[3] = Toxicity in ip dosed rat; type: organism-based; settings: in vivo
[4] = test system: Rattus norvegicus; test: […] in muscle action potential decrement in rat experimental autoimmune model of myasthenia gravis at 0.008 mg/kg, ip (reference value: 67.3 +/- 2.7%); type: functional
[5] = target: Cholinesterase (Homo sapiens, UniProt P06276); test: Inhibition of BChE from human plasma
[6] = target: T1, Acetylcholinesterase; test: Reversible inhibition of AChE from human erythrocytes by Lineweaver-Burk plot
[7] = test system: Rattus norvegicus; test: […] in muscle action potential decrement in rat experimental autoimmune model of myasthenia gravis at 0.1 mg/kg, ip (reference value: 67.3 +/- 2.7%); type: functional
[8] = test system: Rattus norvegicus; test: […] in muscle action potential decrement in rat experimental autoimmune model of myasthenia gravis at 0.3 mg/kg, ip (reference value: 67.3 +/- 2.7%); type: functional

Cholinesterase, sequence (P06276 whole entry): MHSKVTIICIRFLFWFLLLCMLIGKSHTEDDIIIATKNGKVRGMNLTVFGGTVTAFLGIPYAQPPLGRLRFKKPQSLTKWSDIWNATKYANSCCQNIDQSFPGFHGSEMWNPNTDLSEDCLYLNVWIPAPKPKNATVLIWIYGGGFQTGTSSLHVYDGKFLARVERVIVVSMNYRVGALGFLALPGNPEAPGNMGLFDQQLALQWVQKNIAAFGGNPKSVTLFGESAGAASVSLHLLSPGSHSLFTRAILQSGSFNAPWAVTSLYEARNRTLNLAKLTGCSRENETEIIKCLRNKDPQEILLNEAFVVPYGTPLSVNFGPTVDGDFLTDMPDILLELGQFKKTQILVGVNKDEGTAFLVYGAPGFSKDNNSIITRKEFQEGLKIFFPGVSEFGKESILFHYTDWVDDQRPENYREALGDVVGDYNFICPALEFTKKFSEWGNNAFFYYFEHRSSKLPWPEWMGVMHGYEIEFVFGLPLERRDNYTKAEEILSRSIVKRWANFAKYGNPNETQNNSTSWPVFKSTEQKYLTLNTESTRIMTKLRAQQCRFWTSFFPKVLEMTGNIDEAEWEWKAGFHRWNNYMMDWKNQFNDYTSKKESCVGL
T1 sequence (P22303 whole entry): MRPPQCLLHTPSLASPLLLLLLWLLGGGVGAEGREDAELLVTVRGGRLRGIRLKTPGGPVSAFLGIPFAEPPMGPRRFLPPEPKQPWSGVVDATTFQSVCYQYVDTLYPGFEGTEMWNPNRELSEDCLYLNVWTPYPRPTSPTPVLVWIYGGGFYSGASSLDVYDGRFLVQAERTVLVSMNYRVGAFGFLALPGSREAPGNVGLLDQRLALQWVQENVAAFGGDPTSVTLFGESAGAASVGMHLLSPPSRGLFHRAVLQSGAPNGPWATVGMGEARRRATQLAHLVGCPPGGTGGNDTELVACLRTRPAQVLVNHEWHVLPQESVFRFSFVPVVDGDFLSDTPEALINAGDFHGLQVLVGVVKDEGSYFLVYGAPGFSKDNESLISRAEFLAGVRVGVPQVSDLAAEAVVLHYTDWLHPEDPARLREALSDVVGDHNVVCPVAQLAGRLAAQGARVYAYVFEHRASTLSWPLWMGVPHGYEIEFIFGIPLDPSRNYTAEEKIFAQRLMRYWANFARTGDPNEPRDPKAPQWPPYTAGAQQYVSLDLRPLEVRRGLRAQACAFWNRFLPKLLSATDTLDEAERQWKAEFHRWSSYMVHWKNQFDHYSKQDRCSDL

CC[N+](CC)(CCCCCn1c(C)cc(=O)n(CCCCC[N+](CC)(CC)Cc2ccccc2[N+](=O)[O-])c1=O)Cc1ccccc1[N+](=O)[O-].[Br-].[Br-]
IC50 [1]: 0.14 nM
Activity [2]: 83.25%
LD50 [3]: 0.008 mg/kg
Activity [4]: 95.41%
IC50 [5]: 10 µM
Ki [6]: 0.08 nM

CC[N+]1(Cc2ccccc2[N+](=O)[O-])CCCCCC[N+](CC)(Cc2ccccc2[N+](=O)[O-])CCCCCn2c(=O)cc(C)n(c2=O)CCCCC1 (stereo not given)
IC50 [1]: 59 nM
IC50 [5]: 9.2 µM

CC[N+]1(Cc2ccccc2[N+](=O)[O-])CCCCCn2c(C)cc(=O)n(c2=O)CCCCC[N+](CC)(Cc2ccccc2[N+](=O)[O-])Cc2ccc(cc2)C1.[Br-].[Br-] (stereo not given)
Activity [7]: 75%
IC50 [1]: 7 nM
LD50 [3]: 15.5 mg/kg
IC50 [5]: 1.2 µM
Activity [8]: 95.4%
Ki [6]: 50.1 nM

CC[N+]1(Cc2ccccc2[N+](=O)[O-])CCCCCn2c(C)cc(=O)n(c2=O)CCCCC[N+](CC)(Cc2ccccc2[N+](=O)[O-])CCCCCn2c(=O)cc(C)n(c2=O)CCCCC1 (stereo not given)
IC50 [1]: 130 nM
IC50 [5]: 10 µM

CC[N+]1(Cc2ccccc2[N+](=O)[O-])CCCCCn2c(C)c3c(=O)n(c2=O)CCCCC[N+](CC)(Cc2ccccc2[N+](=O)[O-])CCCCCn2c(C)c(c(=O)n(c2=O)CCCCC1)C3 (stereo not given)
IC50 [1]: 4000 nM
IC50 [5]: 20 µM

CN(C)C(=O)Oc1ccc[n+](C)c1.[Br-] [PYRIDOSTIGMINE BROMIDE]
Activity [7]: 91.3%
LD50 [3]: 2.7 mg/kg
